Laboratory results: patent publication US8420853B2, “Derivatives of cyclic compound and the use thereof” (Wonkisopharm Co., Ltd, priority 2006, dated 2013)

Tested on: mouse melanoma B-16 cells
Assay: Inhibitory effect on melanin synthesis
Format: cell-based
Experimental: In order to confirm the inhibition effect of the compounds prepared in Examples 1 to 31 and hydroquinone on melanin biosynthesis, the experiment was performed with the procedure described in the literature (Lotan R., Lotan D. Cancer Res., 40, pp. 3345-3350, 1980).
[…] The medium was cultured for 3 days and the cultured cells were separated from the medium by treating with trypsin. The separated cells were centrifuged and the melanin was extracted therefrom. The extract was treated with 1 ml of sodium hydroxide solution (1N) and boiled for 10 mins to resolve the melanin. Optical density (OD) value was measured 3 times at 475 nm by a spectrophotometer and the amount of melanin was expressed by absorbance(OD)/1×10^6 cells. The inhibitory effect of melanin (%) was calculated from the melanin synthesis as compared with the control group.

[1] = Mus musculus, B16, 72 h, concentration 5 ug/ml, B-16 cells cultured 3 days, vs control group
[2] = Mus musculus, B16, 72 h, concentration 20 ug/ml, B-16 cells cultured 3 days, vs control group
[3] = concentration 5 ug/ml, B-16 cells cultured 3 days, vs control group
[4] = concentration 20 ug/ml, B-16 cells cultured 3 days, vs control group
[5] = mouse B-16 melanoma cells, statement in words

| Compound | inhibition at 5 µg/mL [1] [%] | inhibition at 20 µg/mL [2] [%] | further results |
| --- | --- | --- | --- |
| CCCC(=O)O[C@@H]1CCCC[C@H]1OC(=O)CCC (relative stereo) [Example 1, butyric acid 2-butyryloxy-trans-cyclohexyl ester] | 30 | 55 |  |
| CCCCC(=O)O[C@@H]1CCCC[C@H]1OC(=O)CCCC (relative stereo) [Example 2, pentanoic acid 2-pentanoyloxy-trans-cyclohexyl ester] | 45 | 78 |  |
| CC(C)=CC(=O)O[C@@H]1CCCC[C@H]1OC(=O)C=C(C)C (relative stereo) [Example 3, 3-methyl-2-butenoic acid 2-(3-methyl-2-butenoyloxy)-trans-cyclohexyl ester] | 39 | 72 |  |
| CCCCCC(=O)O[C@@H]1CCCC[C@H]1OC(=O)CCCCC (relative stereo) [Example 4, hexanoic acid 2-hexanoyloxy-trans-cyclohexyl ester] | 41 | 71 |  |
| CCCCCCC(=O)O[C@@H]1CCCC[C@H]1OC(=O)CCCCCC (relative stereo) [Example 5, heptanoic acid 2-heptanoyloxy-trans-cyclohexyl ester] | 35 | 56 |  |
| CCCCCCCC(=O)O[C@@H]1CCCC[C@H]1OC(=O)CCCCCCC (relative stereo) [Example 6, octanoic acid 2-octanoyloxy-trans-cyclohexyl ester] | 30 | 51 |  |
| CCCCC(CC)C(=O)O[C@@H]1CCCC[C@H]1OC(=O)C(CC)CCCC (relative stereo) [Example 7, 2-ethyl-hexanoic acid 2-(2-ethyl-hexanoyloxy)-trans-cyclohexyl ester] | 42 | 69 |  |
| CCCCCCCCC(=O)O[C@@H]1CCCC[C@H]1OC(=O)CCCCCCCC (relative stereo) [Example 8, nonanoic acid 2-nonanoyloxy-trans-cyclohexyl ester] | 21 | 47 |  |
| CCCCCCCCCC(=O)O[C@@H]1CCCC[C@H]1OC(=O)CCCCCCCCC (relative stereo) [Example 9, decanoic acid 2-decanoyloxy-trans-cyclohexyl ester] | 19 | 39 |  |
| CCCCCCCCCCCC(=O)O[C@@H]1CCCC[C@H]1OC(=O)CCCCCCCCCCC (relative stereo) [Example 10, lauric acid 2-lauroyloxy-trans-cyclohexyl ester] | 9 | 15 |  |
| CC(C)=CC(=O)O[C@@H]1CCC[C@H]1OC(=O)C=C(C)C (relative stereo) [Example 12, 3-methyl-2-butenoic acid 2-(3-methyl-2-butenoyloxy)-trans-cyclopentyl ester] | 27 | 56 |  |
| CCCCCCCC(=O)O[C@@H]1CCC[C@H]1OC(=O)CCCCCCC (relative stereo) [Example 13, octanoic acid 2-octanoyloxy-trans-cyclopentyl ester] | 30 | 54 |  |
| CCCCC(CC)C(=O)O[C@@H]1CCC[C@H]1OC(=O)C(CC)CCCC (relative stereo) [Example 14, 2-ethyl-hexanoic acid 2-(2-ethyl-hexanoyloxy)-trans-cyclopentyl ester] | 31 | 57 |  |
| C=CCCC(=O)O[C@@H]1CCCC[C@H]1OC(=O)CCC=C (relative stereo) [Example 15, 4-pentenoic acid 2-(4-pentenoyloxy)-trans-cyclohexyl ester] | 39 | 72 |  |
| CC(C)=CC(=O)O[C@H]1CCCC[C@H]1OC(=O)C=C(C)C [Example 11, 3-methyl-2-butenoic acid 2-(3-methyl-2-butenoyloxy)-cis-cyclohexyl ester] | 31 | 54 |  |
| CC(C)=CC(=O)Oc1ccccc1OC(=O)C=C(C)C [Example 16, 3-methyl-2-butenoic acid 2-(3-methyl-2-butenoyloxy)-phenyl ester] | 15 | 27 |  |

| Compound | inhibition at 5 µg/mL [1] [%] | inhibition at 20 µg/mL [2] [%] | further results |
| --- | --- | --- | --- |
| CCCCCCCC(=O)Oc1ccccc1OC(=O)CCCCCCC [Example 17, octanoic acid 2-octanoyloxy-phenyl ester] | 9 | 18 |  |
| CC(C)=CC(=O)Oc1cc2ccccc2cc1OC(=O)C=C(C)C [Example 18, 3-methyl-2-butenoic acid 3-(3-methyl-2-butenoyloxy)-naphthalen-2-yl ester] | 47 | 67 |  |
| CCCCCCCC(=O)Oc1cc2ccccc2cc1OC(=O)CCCCCCC [Example 19, octanoic acid 3-octanoyloxy-naphthalen-2-yl ester] | 39 | 61 |  |
| CCCCC(CC)C(=O)Oc1cc2ccccc2cc1OC(=O)C(CC)CCCC (stereo not drawn) [Example 20, 2-ethyl-hexanoic acid 3-(2-ethyl-hexanoyloxy)-naphthalen-2-yl ester] | 29 | 55 |  |
| CCCCCCCC(=O)Oc1cccnc1OC(=O)CCCCCCC [Example 21, octanoic acid 3-octanoyloxy-pyridin-2-yl ester] | 48 | 81 |  |
| CC(C)=CC(=O)OC1COCC1OC(=O)C=C(C)C (stereo not drawn) [Example 22, 3-methyl-2-butenoic acid 4-(3-methyl-2-butenoyloxy)-tetrahydrofuran-3-yl ester] | 27 | 49 |  |
| CCCCCCCC(=O)OC1CCCC(OC(=O)CCCCCCC)C1OC(=O)CCCCCCC (stereo not drawn) [Example 24, octanoic acid 2,3-bis-octanoyloxy-cyclohexyl ester] | 39 | 69 |  |
| CCCC(=O)OC1C(OC(=O)CCC)C(OC(=O)CCC)C(OC(=O)CCC)C(OC(=O)CCC)C1OC(=O)CCC (stereo not drawn) [Example 25, myo-inositol hexa-O-butanoate] |  |  | Melanin synthesis inhibition (%) [3]: 27%; Melanin synthesis inhibition (%) [4]: 59% |
| CC(C)=CC(=O)OC1OC[C@@H](OC(=O)C=C(C)C)[C@@H](OC(=O)C=C(C)C)[C@@H]1OC(=O)C=C(C)C (stereo partly drawn) [Example 26] |  |  | Melanin synthesis inhibition (%) [3]: 31%; Melanin synthesis inhibition (%) [4]: 61% |
| CCCC(=O)OC[C@H]1O[C@H](OC)[C@H](OC(=O)CCC)[C@@H](OC(=O)CCC)[C@@H]1OC(=O)CCC [Example 27, methyl-alpha-D-glucose tetra-O-butanoate] |  |  | Melanin synthesis inhibition (%) [3]: 29%; Melanin synthesis inhibition (%) [4]: 49% |
| CC(C)CCOC1CCCCC1OCCC(C)C (stereo not drawn) [Example 28, 1,2-bis-(3-methyl-buthoxy)-cyclohexane] |  |  | Melanin synthesis inhibition (%) [3]: 25%; Melanin synthesis inhibition (%) [4]: 49% |
| CCCCCOC1CCCCC1OCCCCC (stereo not drawn) [Example 29, 1,2-bis-pentyloxy-cyclohexane] | 22 | 43 |  |
| CCCCCCOC1CCCCC1OCCCCCC (stereo not drawn) [Example 30, 1,2-bis-hexyloxy-cyclohexane] | 18 | 41 |  |
| CCCCCCCCOC1CCCCC1OCCCCCCCC (stereo not drawn) [Example 31, 1,2-bis-octyloxy-cyclohexane] | 15 | 31 |  |
| Oc1ccc(O)cc1 [Hydroquinone, reference compound] |  |  | inhibition at 1 µg/mL (Mus musculus, B16, 72 h, concentration 1 ug/ml, B-16 cells cultured 3 days, vs control group): 45%; Melanin synthesis inhibition (%) [3]: Cell death; cytotoxicity [5]: high levels of cytotoxicity; inhibitory activity of melanin synthesis [5]: potent inhibitory activity at low concentration |
| butyric acid 3-methyl-2-butenoic acid 2,3-bis-(3-methyl-2-butenoyloxy)-phenyl ester [Example 23] |  |  | Melanin synthesis inhibition (%) [3]: 48%; Melanin synthesis inhibition (%) [4]: 75% |
